Key:
[1] = molecular target: T1, human ERβ (Homo sapiens, UniProt Q92731); test: Radioligand binding competition with [3H]-17β-estradiol, ERβ; conditions: ligand binding domain expressed in E. coli lysate, read-out: ER-β IC50
T1 construct: M214-Q530 of human ERβ; Flag (C); made in house; host or cells: E. coli BL21(DE3); clarified lysate used

[2] = molecular target: T2, human ERα (Homo sapiens, UniProt P03372); test: Radioligand binding competition with [3H]-17β-estradiol, ERα; conditions: ligand binding domain expressed in E. coli lysate, read-out: ER-α IC50
T2 construct: amino acids M250V595 of human ERα; His (N); made in house; host or cells: E. coli BL21(DE3); clarified lysate used
T2 sequence (P03372 250-595): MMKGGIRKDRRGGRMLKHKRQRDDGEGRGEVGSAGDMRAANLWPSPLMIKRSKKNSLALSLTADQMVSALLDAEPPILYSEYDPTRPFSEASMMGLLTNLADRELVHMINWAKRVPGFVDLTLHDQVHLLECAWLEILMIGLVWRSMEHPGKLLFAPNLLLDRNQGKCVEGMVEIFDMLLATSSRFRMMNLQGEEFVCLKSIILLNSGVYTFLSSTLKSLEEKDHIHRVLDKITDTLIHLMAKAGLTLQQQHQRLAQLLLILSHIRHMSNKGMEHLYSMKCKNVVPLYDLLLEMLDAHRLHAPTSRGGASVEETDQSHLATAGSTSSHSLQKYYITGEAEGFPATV

T1 sequence (Q92731 214-530): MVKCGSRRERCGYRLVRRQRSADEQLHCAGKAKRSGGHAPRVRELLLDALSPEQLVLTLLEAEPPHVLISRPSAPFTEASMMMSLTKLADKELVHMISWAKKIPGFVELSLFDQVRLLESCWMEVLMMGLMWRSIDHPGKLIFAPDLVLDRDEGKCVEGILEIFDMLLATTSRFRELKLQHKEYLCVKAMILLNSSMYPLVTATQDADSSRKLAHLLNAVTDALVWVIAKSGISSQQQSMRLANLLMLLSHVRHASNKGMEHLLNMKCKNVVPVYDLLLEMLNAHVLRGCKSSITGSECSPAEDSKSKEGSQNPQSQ

melting point [°C]	IC50 [1] [nM]	IC50 [2] [nM]	SMILES
290 to 292	1510	> 5000	Cn1nc(-c2ccc3cc(O)ccc3c2)c2ccc(O)cc21 [Example 17, 3-(6-Hydroxy-2-naphthyl)-1-methyl-1H-indazol-6-ol]
146 to 148	> 5000	3170	CCn1nc(-c2ccc3cc(O)ccc3c2)c2ccc(O)cc21 [Example 18, 1-Ethyl-3-(6-hydroxy-2-naphthyl)-1H-indazol-6-ol]
182 to 184	230	581	Oc1ccc2oc(-c3ccc(O)c4ccccc34)nc2c1 [Example 6, 2-(4-Hydroxy-1-naphthyl)-1,3-benzoxazol-5-ol]
